According to the CheMixHub viscosity set:

Assay: xn = mol fraction of the nth substance listed

Cn1c(=O)c2c(ncn2C)n(C)c1=O + O
Settings | viscosity [mPa·s]
293.15 K, 100 kPa, x1 = 0.000362 | 1.007
293.15 K, 100 kPa, x1 = 0.00054 | 1.01
293.15 K, 100 kPa, x1 = 0.00072 | 1.013
293.15 K, 100 kPa, x1 = 0.0009 | 1.018
293.15 K, 100 kPa, x1 = 0.00108 | 1.022
293.15 K, 100 kPa, x1 = 0.00126 | 1.027
293.15 K, 100 kPa, x1 = 0.00144 | 1.031
298.15 K, 100 kPa, x1 = 0.000362 | 0.892
298.15 K, 100 kPa, x1 = 0.00054 | 0.897
298.15 K, 100 kPa, x1 = 0.00072 | 0.901
298.15 K, 100 kPa, x1 = 0.0009 | 0.903
298.15 K, 100 kPa, x1 = 0.00144 | 0.916
298.15 K, 101 kPa, x1 = 9.11e-06 | 0.8903
298.15 K, 101 kPa, x1 = 1.822e-05 | 0.8906
298.15 K, 101 kPa, x1 = 7.288e-05 | 0.8912
298.15 K, 101 kPa, x1 = 0.0001457 | 0.8921
298.15 K, 101 kPa, x1 = 0.0001858 | 0.8928
298.15 K, 101 kPa, x1 = 0.0002 | 0.8925
298.15 K, 101 kPa, x1 = 0.0002277 | 0.8933
298.15 K, 101 kPa, x1 = 0.00045 | 0.8973
298.15 K, 101 kPa, x1 = 0.0004553 | 0.8967
298.15 K, 101 kPa, x1 = 0.000835 | 0.9028
298.15 K, 101 kPa, x1 = 0.0009102 | 0.904
298.15 K, 101 kPa, x1 = 0.00168 | 0.9204
298.15 K, 101 kPa, x1 = 0.001827 | 0.9238
303.15 K, 100 kPa, x1 = 0.000362 | 0.799
303.15 K, 100 kPa, x1 = 0.00054 | 0.802
303.15 K, 100 kPa, x1 = 0.00072 | 0.805
303.15 K, 100 kPa, x1 = 0.0009 | 0.809
303.15 K, 100 kPa, x1 = 0.00108 | 0.812
303.15 K, 100 kPa, x1 = 0.00126 | 0.815
303.15 K, 100 kPa, x1 = 0.00144 | 0.819
308.15 K, 100 kPa, x1 = 0.000362 | 0.72
308.15 K, 100 kPa, x1 = 0.00072 | 0.725
308.15 K, 100 kPa, x1 = 0.00144 | 0.738
308.15 K, 101 kPa, x1 = 0.0002 | 0.7216
308.15 K, 101 kPa, x1 = 0.000508 | 0.7219
308.15 K, 101 kPa, x1 = 0.000835 | 0.7263
308.15 K, 101 kPa, x1 = 0.00106 | 0.7314
308.15 K, 101 kPa, x1 = 0.00168 | 0.7421
308.15 K, 101 kPa, x1 = 0.001827 | 0.7443
310.15 K, 101 kPa, x1 = 9.11e-06 | 0.6928
310.15 K, 101 kPa, x1 = 1.822e-05 | 0.6933
310.15 K, 101 kPa, x1 = 7.288e-05 | 0.6952
310.15 K, 101 kPa, x1 = 0.0001457 | 0.6977
310.15 K, 101 kPa, x1 = 0.0001858 | 0.6998
310.15 K, 101 kPa, x1 = 0.0002277 | 0.7014
310.15 K, 101 kPa, x1 = 0.0004553 | 0.7104
310.15 K, 101 kPa, x1 = 0.0009102 | 0.7283
313.15 K, 100 kPa, x1 = 0.000362 | 0.652
313.15 K, 100 kPa, x1 = 0.00054 | 0.655
313.15 K, 100 kPa, x1 = 0.00072 | 0.657
313.15 K, 100 kPa, x1 = 0.0009 | 0.66
313.15 K, 100 kPa, x1 = 0.00108 | 0.663
313.15 K, 100 kPa, x1 = 0.00126 | 0.665
313.15 K, 100 kPa, x1 = 0.00144 | 0.669
318.15 K, 101 kPa, x1 = 0.0002 | 0.5982
318.15 K, 101 kPa, x1 = 0.000508 | 0.6031
318.15 K, 101 kPa, x1 = 0.000835 | 0.6101
318.15 K, 101 kPa, x1 = 0.00106 | 0.6182
318.15 K, 101 kPa, x1 = 0.00139 | 0.6272
318.15 K, 101 kPa, x1 = 0.00168 | 0.6353
318.15 K, 101 kPa, x1 = 0.001827 | 0.6393
